According to US20180273531A1, “PYRIMIDINE COMPOUND AND MEDICAL USE THEREOF” (Japan Tobacco Inc., priority 2004, published 2018):

Key:
Format in all cases: cell-based
[1] = tested on: Renal cancer cell line ACHN cell; assay: Growth inhibitory effect against cancer cell lines (3H-thymidine uptake), ACHN; conditions: Homo sapiens, ACHN
In short: (§1)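 Cells seeded at 1.0×10^4/well, grown 24 hrs, then exposed to compound in DMSO for 18 hrs before 6 hrs pulse with ^3H-thymidine (0.25 μCi/well). Harvested cell-incorporated radioactivity counted; IC50 is the concentration halving uptake versus DMSO control, triplicate.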

p27 protein = p27 protein induction test (Western blotting); conditions: test substance (0.1 1M), 24 hrs, ACHN cells or HT-29 cells, compared to DMSO, n=2
Protocol: ACHN cells or HT-29 cells were cultured in a 6 well plate at 2.5×10^5 cells/1.8 mL/well for 24 hrs, a test substance ([…]) dissolved in DMSO was added. After 24 hrs, cells were detached using trypsin-EDTA (ethylene diamine tetraacetic acid) and solubilized with NuPAGE LDS sample buffer (Invitrogen). Using an RC DC protein assay kit (BIO-RAD), the protein concentration of the sample was quantitated, and a sample in an amount corresponding to 10 μg of BSA (bovine serum albumin) was analyzed by Western blotting using an anti-p27 antibody. The density of the band stained with the anti-p27 antibody was measured by a densitometer to quantify the amount of p27 protein. As a control, DMSO was used and the test was performed with n=2 and the average protein amount was determined.

[2] = tested on: colorectal cancer cell line HT-29 cells; assay: Growth inhibitory effect against cancer cell lines (3H-thymidine uptake), HT-29; conditions: Homo sapiens, HT-29, inhibition of 3H-thymidine uptake; test substance 18 hrs, then 3H-thymidine 6 hrs; triplicate
In short: as §1

p15 protein = assay: Evaluation of p15 induction activity (Western blotting); conditions: test substance 0.1 μM, 24 hrs, ACHN cells or HT-29 cells, compared to DMSO, n=2
In short: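 p15 protein quantified by densitometry of anti-p15 Western blots (10 μg protein per lane, mean of n=2). Samples came from HT-29 or ACHN cells given 0.1 μM compound for 24 h after 24 h plating, with DMSO as control.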

SMILES	IC50 [1]	IC50 [2]	fold induction at 0.1 µM (p27 protein)	fold induction at 0.1 µM (p15 protein)
Cn1c(=O)cc(Nc2ccc(C(F)(F)F)cc2F)c2c(=O)n(C3CC3)c(=O)n(-c3cccc(NS(C)(=O)=O)c3)c21 [Example 1-301]	100 to 1000 nM	10 to 100 nM	≥ 1.5	≥ 1.5
C=Cc1ccc(Nc2cc(=O)n(C)c3c2c(=O)n(C2CC2)c(=O)n3-c2ccccc2)c(F)c1 [Example 1-240]	10 to 100 nM	10 to 100 nM	≥ 1.5	≥ 1.5
C#Cc1ccc(Nc2cc(=O)n(C)c3c2c(=O)n(C2CC2)c(=O)n3-c2cccc(NS(=O)(=O)CC)c2)c(F)c1 [Example 1-289]	< 10 nM	< 10 nM	≥ 1.5	≥ 1.5
Cn1c(=O)cc(Nc2ccc(Br)cc2F)c2c(=O)n(C3CC3)c(=O)n(-c3cccc(CCCO)c3)c21 [Example 1-243]	100 to 1000 nM	10 to 100 nM	≥ 1.5	≥ 1.5
C#Cc1ccc(Nc2cc(=O)n(C)c3c2c(=O)n(C2CC2)c(=O)n3-c2cccc(NS(C)(=O)=O)c2)c(Cl)c1 [Example 1-337]	10 to 100 nM	< 10 nM	≥ 1.5	≥ 1.5
CCCS(=O)(=O)Nc1cccc(-n2c(=O)n(C3CC3)c(=O)c3c(Nc4ccc(Br)cc4F)cc(=O)n(C)c32)c1 [Example 1-271]	10 to 100 nM	< 10 nM	≥ 1.5	≥ 1.5
CCc1ccc(Nc2cc(=O)n(C)c3c2c(=O)n(C2CC2)c(=O)n3-c2cccc(NC(C)=O)c2)c(F)c1 [Example 1-296]	100 to 1000 nM	< 10 nM	≥ 1.5	≥ 1.5
COCC(=O)Nc1cccc(-n2c(=O)n(C3CC3)c(=O)c3c(Nc4ccc(Br)cc4F)cc(=O)n(C)c32)c1 [Example 1-266]	100 to 1000 nM	< 10 nM	≥ 1.5	≥ 1.5
Cn1c(=O)cc(Nc2ccc(Br)cc2F)c2c(=O)n(C3CC3)c(=O)n(-c3cccc(S(=O)(=O)N4CCCC4)c3)c21 [Example 1-318]	100 to 1000 nM	< 10 nM	≥ 1.5	≥ 1.5
C#Cc1ccc(Nc2cc(=O)n(C)c3c2c(=O)n(C2CC2)c(=O)n3-c2cccc(NS(C)(=O)=O)c2)c(C)c1 [Example 1-336]	10 to 100 nM	< 10 nM	≥ 1.5	≥ 1.5
Cn1c(=O)cc(Nc2ccc(CCF)cc2F)c2c(=O)n(C3CC3)c(=O)n(-c3cccc(NS(C)(=O)=O)c3)c21 [Example 1-338]	10 to 100 nM	< 10 nM	≥ 1.5	≥ 1.5
CN(C)S(=O)(=O)c1ccc(-n2c(=O)n(C3CC3)c(=O)c3c(Nc4ccc(Br)cc4F)cc(=O)n(C)c32)cc1 [Example 1-226]	100 to 1000 nM	10 to 100 nM	≥ 1.5	≥ 1.5
C#Cc1ccc(Nc2cc(=O)n(C)c3c2c(=O)n(C2CC2)c(=O)n3-c2cccc(NS(=O)(=O)CCC)c2)c(F)c1 [Example 1-320]	10 to 100 nM	< 10 nM	≥ 1.5	≥ 1.5
Cn1c(=O)cc(Nc2ccc(CCF)cc2)c2c(=O)n(C3CC3)c(=O)n(-c3ccccc3)c21 [Example 1-293]	100 to 1000 nM	100 to 1000 nM	≥ 1.5	≥ 1.5
CC(C)S(=O)(=O)Nc1cccc(-n2c(=O)n(C3CC3)c(=O)c3c(Nc4ccc(Br)cc4F)cc(=O)n(C)c32)c1 [Example 1-272]	10 to 100 nM	10 to 100 nM	≥ 1.5	≥ 1.5

Continued, in another order:

IC50 [1]	IC50 [2]	SMILES	fold induction at 0.1 µM (p27 protein)	fold induction at 0.1 µM (p15 protein)
10 to 100 nM	< 10 nM	CCc1ccc(Nc2c3c(=O)n(C4CC4)c(=O)n(-c4cccc(NC(C)=O)c4)c3c(C)c(=O)n2C)c(F)c1 [Example 4-9]	≥ 1.5	≥ 1.5
10 to 100 nM	< 10 nM	C=C(C)c1ccc(Nc2c3c(=O)n(C4CC4)c(=O)n(-c4cccc(NC(C)=O)c4)c3c(C)c(=O)n2C)c(F)c1 [Example 4-97]	≥ 1.5	≥ 1.5
10 to 100 nM	< 10 nM	CCS(=O)(=O)c1cccc(-n2c(=O)n(C3CC3)c(=O)c3c(Nc4ccc(I)cc4F)n(C)c(=O)c(C)c32)c1 [Example 4-58]	≥ 1.5	≥ 1.5
100 to 1000 nM	10 to 100 nM	CCc1ccc(Nc2c3c(=O)n(CC)c(=O)n(-c4cccc(NC(C)=O)c4)c3c(C)c(=O)n2C)c(F)c1 [Example 4-45]	≥ 1.5	≥ 1.5
10 to 100 nM	< 10 nM	Cc1c(=O)n(C)c(Nc2ccc(I)cc2F)c2c(=O)n(C3CC3)c(=O)n(-c3ccc(C(=O)N(C)C)cc3)c12 [Example 4-93]	≥ 1.5	≥ 1.5
10 to 100 nM	< 10 nM	Cc1c(=O)n(C)c(Nc2ccc(I)cc2F)c2c(=O)n(C3CC3)c(=O)n(-c3ccc(C(N)=O)cc3)c12 [Example 4-91]	≥ 1.5	≥ 1.5
10 to 100 nM	< 10 nM	C#Cc1ccc(Nc2c3c(=O)n(C4CC4)c(=O)n(-c4cccc(NS(=O)(=O)CC)c4)c3c(C)c(=O)n2C)c(F)c1 [Example 4-6]	≥ 1.5	≥ 1.5
100 to 1000 nM	10 to 100 nM	CC(=O)Nc1cccc(-n2c(=O)n(C3CC3)c(=O)c3c(Nc4ccc(C)cc4F)n(C)c(=O)c(C)c32)c1 [Example 4-56]	≥ 1.5	≥ 1.5
100 to 1000 nM	< 10 nM	Cc1cc(-n2c(=O)n(C3CC3)c(=O)c3c(Nc4ccc(I)cc4F)n(C)c(=O)c(C)c32)ccc1NS(C)(=O)=O [Example 4-117]	≥ 1.5	≥ 1.5
10 to 100 nM	< 10 nM	Cc1c(=O)n(C)c(Nc2ccc(I)cc2F)c2c(=O)n(C3CC3)c(=O)n(-c3cccc(S(C)(=O)=O)c3)c12 [Example 4-55]	≥ 1.5	≥ 1.5
10 to 100 nM	< 10 nM	CCCCC(=O)NCCC(=O)Nc1cccc(-n2c(=O)n(C3CC3)c(=O)c3c(Nc4ccc(I)cc4F)n(C)c(=O)c(C)c32)c1 [Example 4-12]	≥ 1.5	≥ 1.5
100 to 1000 nM	< 10 nM	Cc1c(=O)n(C)c(Nc2ccc(I)cc2F)c2c(=O)n(C3CC3)c(=O)n(-c3ccc4nc(O)[nH]c4c3)c12 [Example 4-103]	≥ 1.5	≥ 1.5
10 to 100 nM	< 10 nM	Cc1c(=O)n(C)c(Nc2ccc(I)cc2F)c2c(=O)n(C3CC3)c(=O)n(-c3cccc(S(N)(=O)=O)c3)c12 [Example 4-127]	≥ 1.5	≥ 1.5
10 to 100 nM	< 10 nM	Cc1c(=O)n(C)c(Nc2ccc(I)cc2F)c2c(=O)n(C3CC3)c(=O)n(-c3cccc(NC4=NCCO4)c3)c12 [Example 4-110]	≥ 1.5	≥ 1.5
10 to 100 nM	< 10 nM	CCn1c(=O)c2c(Nc3ccc(I)cc3F)n(C)c(=O)c(C)c2n(-c2cccc(NC(C)=O)c2)c1=O [Example 4-21]	≥ 1.5	≥ 1.5
10 to 100 nM	< 10 nM	CSc1ccc(Nc2c3c(=O)n(C4CC4)c(=O)n(-c4cccc(NC(C)=O)c4)c3c(C)c(=O)n2C)c(F)c1 [Example 4-105]	≥ 1.5	≥ 1.5
10 to 100 nM	< 10 nM	Cc1c(=O)n(C)c(Nc2ccc(I)cc2F)c2c(=O)n(C3CC3)c(=O)n(-c3ccc4nc[nH]c4c3)c12 [Example 4-107]	≥ 1.5	≥ 1.5
10 to 100 nM	< 10 nM	CCc1ccc(Nc2c3c(=O)n(C)c(=O)n(-c4cccc(NS(C)(=O)=O)c4)c3c(C)c(=O)n2C)c(F)c1 [Example 4-51]	≥ 1.5	≥ 1.5
< 10 nM	< 10 nM	CCS(=O)(=O)Nc1cccc(-n2c(=O)n(C3CC3)c(=O)c3c(Nc4ccc(I)cc4F)n(C)c(=O)c(C)c32)c1 [Example 4-2]	≥ 1.5	≥ 1.5
10 to 100 nM	< 10 nM	CCS(=O)(=O)Nc1ccc(-n2c(=O)n(C3CC3)c(=O)c3c(Nc4ccc(I)cc4F)n(C)c(=O)c(C)c32)cc1 [Example 4-77]	≥ 1.5	≥ 1.5
100 to 1000 nM	10 to 100 nM	CCc1ccc(Nc2c3c(=O)n(C4CC4)c(=O)n(-c4ccc(NS(C)(=O)=O)cc4)c3c(C)c(=O)n2C)c(F)c1 [Example 4-78]	≥ 1.5	≥ 1.5
